The results in this text go back to the supplement of paper PMC12317010.

Counter-ions that a name gives are not always drawn.

This series can be described thus: collision cross section in nitrogen (drift tube, single-field); higher = larger gas-phase ion size.
[1] abbreviates: ion type: [M+H], ion source: APCI, ion mode: Positive.
[2] abbreviates: ion type: [M+H], ion source: ESI, ion mode: Positive.
Setting [3] is: ion type: [M+Na], ion source: ESI, ion mode: Positive.
The mark [4] stands for this setting: ion type: [M-H], ion source: ESI, ion mode: Negative.
Setting [5] is: ion source: ESI, ion mode: Positive, ion type: [M]+ (permanent cation).
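Further: chemical standards at 10 µM analysed by drift tube IMS-QTOF MS in about 3.95 torr nitrogen, mean of duplicate injections differing ≤1%, mass error below 10 ppm.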

As to `CCCCOC(=O)N(C)SN(C)C(=O)Oc1cccc2c1OC(C)(C)C2` [Furathiocarb], the “collision cross section in nitrogen” value stood at 191.3 Å² under setting [1], 190.5 Å² under setting [2] and 195 Å² under setting [3].
Take `CC(C)(C)C(O)(CCc1ccc(Cl)cc1)Cn1cncn1` (stereo not drawn) [Tebuconazole]: the “collision cross section in nitrogen” value by setting is: under setting [1], 167.5 Å²; under setting [2], 166.8 Å²; under setting [3], 172.5 Å².
For the compound `CN/C(=N\[N+](=O)[O-])NCc1cnc(Cl)s1` [Clothianidin], the “collision cross section in nitrogen” value under setting [4] is 151.8 Å².
For the compound `COP(=O)(OC)O/C(=C\Cl)c1cc(Cl)c(Cl)cc1Cl` [Z-Tetrachlorvinphos], the “collision cross section in nitrogen” value under setting [3] came out at 177.9 Å².
Turning to `c1cnc2c(c1)ccc1cccnc12` [1,10-Phenanthroline], the “collision cross section in nitrogen” value is, setting by setting: under setting [1], 131.3 Å²; under setting [2], 132.4 Å²; under setting [3], 146 Å².
For the compound `CCOc1ccc2c(ccc(C=Cc3cccc([N+](=O)[O-])c3)[n+]2C)c1` [Pinakryptol Yellow], the “collision cross section in nitrogen” value under setting [5] turned out to be 189.2 Å².
Turning to `N#Cc1nn(-c2c(Cl)cc(C(F)(F)F)cc2Cl)c(N)c1S(=O)C(F)(F)F` (stereo not drawn) [Fipronil], the “collision cross section in nitrogen” value under setting [4] is 178.1 Å².
With `Fc1ccc(Oc2ccnc3cc(Cl)cc(Cl)c23)cc1` [Quinoxyfen], the “collision cross section in nitrogen” value came out at 165.8 Å² under setting [1] and 165.5 Å² under setting [2].
Turning to `COc1ccc(N)c(C)c1` [4-Methoxy-2-methylaniline], the “collision cross section in nitrogen” value was determined as 124.8 Å² under setting [1] and 135.7 Å² under setting [2].
As to `COC(=O)C(C)N(C(=O)c1ccco1)c1c(C)cccc1C` (stereo not drawn) [Furalaxyl], the “collision cross section in nitrogen” value is, setting by setting: under setting [1], 162.1 Å²; under setting [2], 161.4 Å²; under setting [3], 178 Å².
Regarding `O=[N+]([O-])c1ccc(O)cc1` [Sodium 4-nitrophenolate], under setting [4], the “collision cross section in nitrogen” value came out at 120.5 Å².
`C=C(C)C(=O)OCCOP(=O)(O)OCCOC(=O)C(=C)C` [Bis(methacryloyloxyethyl) hydrogen phosphate]: under setting [3], the “collision cross section in nitrogen” value is 169.5 Å².
With `CN(C[C@@H](CC[N+]12CCC(C3CCCCC3)(CC1)CC2)c1ccc(Cl)c(Cl)c1)C(=O)c1cc(C(F)(F)F)cc(C(F)(F)F)c1`, the “collision cross section in nitrogen” value runs as follows: (ion source: APCI, ion mode: Positive, ion type: [M]+ (permanent cation)) 260.7 Å²; under setting [5], 262.3 Å².
Turning to `O=C(O)c1cc(=O)c2c(OCC(O)COc3cccc4oc(C(=O)O)cc(=O)c34)cccc2o1` [Cromolyn sodium], the “collision cross section in nitrogen” value under setting [2] worked out at 208.8 Å², the “collision cross section in nitrogen” value under setting [3] turned out to be 211.8 Å² and the “collision cross section in nitrogen” value under setting [4] is listed as 186 Å².
On to `CC(CN1c2ccccc2Sc2ccccc21)N(C)C` (stereo not drawn) [Promethazine hydrochloride], for which the “collision cross section in nitrogen” value amounted to 163.3 Å² under setting [1], 163.7 Å² under setting [2] and 172.5 Å² under setting [3].
For `Nc1cccc(S(=O)(=O)c2cccc(N)c2)c1` [3,3'-Sulphonyldianiline], the “collision cross section in nitrogen” value under setting [3] is listed as 172.6 Å².
In the case of `O=C(Nc1ccc(Br)cc1)c1cc(Br)cc(Br)c1O` [Tribromsalan], under setting [4], the “collision cross section in nitrogen” value amounted to 173.7 Å².
With `CC(=O)CCCCn1c(=O)c2c(ncn2C)n(C)c1=O` [3,7-Dihydro-3,7-dimethyl-1-(5-oxohexyl)-1H-Purine-2,6-dione], the “collision cross section in nitrogen” value is given as 160.9 Å² under setting [2] and 172 Å² under setting [3].
`COC(=O)N(OC)c1ccccc1COc1ccn(-c2ccc(Cl)cc2)n1` [Pyraclostrobin]: the “collision cross section in nitrogen” value was 184.5 Å² under setting [1], 183.8 Å² under setting [2] and 195.5 Å² under setting [3].
For `CC(C)COC(=O)COc1ccc(Cl)cc1Cl` [2,4-D-isobutyl], the “collision cross section in nitrogen” value under setting [3] worked out at 172.2 Å².
